Measured values from patent publication US20170232083A1, “METHODS OF DIAGNOSIS AND TREATMENT OF CELIAC DISEASE IN CHILDREN” (priority 2014, published 2017).

System: PBMC (polyclonal gluten-specific T cells) of paediatric and adult CD patients
Assay: IFN-γ ELISpot of PBMC after 3 day oral wheat challenge (SFU, % of maximal peptide response, dominance scores, EC50; Examples 5-6)
Format: cell-based, human
Conditions: for IFN-γ ELISpot response: after oral wheat challenge; for Cross-reactive T cell response: following wheat challenge
[1] = patient G, 11-17 yrs, cut-off 10 SFU
[2] = patient H, 11-17 yrs, cut-off 10 SFU
[3] = patient ID not given, 11-17 yrs, cut-off 10 SFU
[4] = patient ID not given, max peptide 95 SFU
[5] = patient P, 11-17 yrs, cut-off 21.6 SFU
[6] = patient Q, 11-17 yrs, cut-off 10 SFU
[7] = patient U, H, 11-17 yrs, cut-off 10 SFU
[8] = patient V, 6-10 yrs, cut-off 10 SFU
[9] = patient Y, 6-10 yrs, cut-off 10 SFU
[10] = patient eleven, 6-10 yrs, cut-off 10 SFU
[11] = patient four, 3-5yrs, cut-off 10 SFU
[12] = patient four, max peptide 44 SFU
[13] = patient seven, 6-10 yrs, cut-off 10.5 SFU
[14] = patient seven, max peptide 27 SFU
[15] = patient ten, 3-5yrs, cut-off 10 SFU
[16] = patient three, 6-10 yrs, cut-off 10.5 SFU
[17] = patient two, 3-5yrs, cut-off 10 SFU
[18] = patient two, max peptide 60 SFU
[19] = patient A, 11-17 yrs, cut-off 10 SFU
[20] = patient E, H, 11-17 yrs, cut-off 10 SFU
[21] = patient F, 11-17 yrs, cut-off 10 SFU
[22] = patient H (HLA-DQ2.5 homozygote), 3-5yrs, cut-off 10 SFU
[23] = patient N, 3-5yrs, cut-off 10 SFU
[24] = patient twelve, 11-17 yrs, cut-off 10 SFU

## FLQPEQPFPEQPEQPYPEQPEQPFPQ
[1]
  IFN-γ ELISpot response: 1 SFU
[2]
  IFN-γ ELISpot response: 6 SFU
[3]
  IFN-γ ELISpot response: 23 SFU
[4]
  Significant response as percentage of maximal peptide SFU: ′′ (21-40% = ′′)
Patient J, max peptide 196 SFU
  Significant response as percentage of maximal peptide SFU: ′ (11-20% = ′)
Patient K, max peptide 53 SFU
  Significant response as percentage of maximal peptide SFU: ′′ (21-40% = ′′)
[5]
  IFN-γ ELISpot response: 11 SFU
[6]
  IFN-γ ELISpot response: 18 SFU
Patient Q, max peptide 97 SFU
  Significant response as percentage of maximal peptide SFU: ′ (11-20% = ′)
[7]
  IFN-γ ELISpot response: 26 SFU
Patient U, max peptide 81 SFU
  Significant response as percentage of maximal peptide SFU: ′′ (21-40% = ′′)
[8]
  IFN-γ ELISpot response: 12 SFU
Patient V, max peptide 35 SFU
  Significant response as percentage of maximal peptide SFU: ′′ (21-40% = ′′)
[9]
  IFN-γ ELISpot response: 6 SFU
[10]
  IFN-γ ELISpot response: 15 SFU
Patient eleven, max peptide 57 SFU
  Significant response as percentage of maximal peptide SFU: ′′ (21-40% = ′′)
[11]
  IFN-γ ELISpot response: 10 SFU
[12]
  Significant response as percentage of maximal peptide SFU: ′′ (21-40% = ′′)
[13]
  IFN-γ ELISpot response: 20 SFU
[14]
  Significant response as percentage of maximal peptide SFU: + (>70% = +)
[15]
  IFN-γ ELISpot response: 3 SFU
[16]
  IFN-γ ELISpot response: 22 SFU
[17]
  IFN-γ ELISpot response: 12 SFU
[18]
  Significant response as percentage of maximal peptide SFU: ′ (11-20% = ′)

## FPQPEQEFPQPQQ
[19]
  IFN-γ ELISpot response: 6 SFU
[20]
  IFN-γ ELISpot response: 49 SFU
Patient E, max peptide 224 SFU
  Significant response as percentage of maximal peptide SFU: ′′ (21-40% = ′′)
[21]
  IFN-γ ELISpot response: 21 SFU
Patient F, max peptide 178 SFU
  Significant response as percentage of maximal peptide SFU: ′ (11-20% = ′)
[1]
  IFN-γ ELISpot response: 4 SFU
[22]
  IFN-γ ELISpot response: 13 SFU
[2]
  IFN-γ ELISpot response: 9 SFU
[3]
  IFN-γ ELISpot response: 26 SFU
[4]
  Significant response as percentage of maximal peptide SFU: ′′ (21-40% = ′′)
Patient II, max peptide 15 SFU
  Significant response as percentage of maximal peptide SFU: + (>70% = +)
Patient J, max peptide 196 SFU
  Significant response as percentage of maximal peptide SFU: + (>70% = +)
Patient K, max peptide 53 SFU
  Significant response as percentage of maximal peptide SFU: ′′′ (41-70% = ′′′)
Patient M, max peptide 48 SFU
  Significant response as percentage of maximal peptide SFU: ′′ (21-40% = ′′)
[23]
  IFN-γ ELISpot response: 3 SFU
[5]
  IFN-γ ELISpot response: 11 SFU
[6]
  IFN-γ ELISpot response: 27 SFU
Patient Q, max peptide 97 SFU
  Significant response as percentage of maximal peptide SFU: ′′ (21-40% = ′′)
[7]
  IFN-γ ELISpot response: 15 SFU
Patient U, max peptide 81 SFU
  Significant response as percentage of maximal peptide SFU: ′ (11-20% = ′)
[8]
  IFN-γ ELISpot response: 9 SFU
[9]
  IFN-γ ELISpot response: 3 SFU
[10]
  IFN-γ ELISpot response: 1 SFU
Patient five, max peptide 48 SFU
  Significant response as percentage of maximal peptide SFU: ′′ (21-40% = ′′)
[11]
  IFN-γ ELISpot response: 10 SFU
[12]
  Significant response as percentage of maximal peptide SFU: ′′ (21-40% = ′′)
[13]
  IFN-γ ELISpot response: 11 SFU
[14]
  Significant response as percentage of maximal peptide SFU: ′′′ (41-70% = ′′′)
[15]
  IFN-γ ELISpot response: 5 SFU
[16]
  IFN-γ ELISpot response: 158 SFU
[24]
  IFN-γ ELISpot response: 7 SFU
[17]
  IFN-γ ELISpot response: 13 SFU
[18]
  Significant response as percentage of maximal peptide SFU: ′ (11-20% = ′)

## FPQPQQQFPQPQQ
[19]
  IFN-γ ELISpot response: 2 SFU
[20]
  IFN-γ ELISpot response: 12 SFU
Patient E, max peptide 224 SFU
  Significant response as percentage of maximal peptide SFU: (6-10% = ^)
[21]
  IFN-γ ELISpot response: 4 SFU
[1]
  IFN-γ ELISpot response: 1 SFU
[22]
  IFN-γ ELISpot response: 6 SFU
[2]
  IFN-γ ELISpot response: 5 SFU
[3]
  IFN-γ ELISpot response: 1 SFU
Patient II, max peptide 15 SFU
  Significant response as percentage of maximal peptide SFU: + (>70% = +)
[23]
  IFN-γ ELISpot response: 1 SFU
[5]
  IFN-γ ELISpot response: 4 SFU
[6]
  IFN-γ ELISpot response: 10 SFU
Patient Q, max peptide 97 SFU
  Significant response as percentage of maximal peptide SFU: ′ (11-20% = ′)
[7]
  IFN-γ ELISpot response: 4 SFU
[8]
  IFN-γ ELISpot response: 2 SFU
[9]
  IFN-γ ELISpot response: 6 SFU
[10]
  IFN-γ ELISpot response: 1 SFU
[11]
  IFN-γ ELISpot response: 5 SFU
[13]
  IFN-γ ELISpot response: 2 SFU
[15]
  IFN-γ ELISpot response: 4 SFU
[16]
  IFN-γ ELISpot response: 1 SFU
[24]
  IFN-γ ELISpot response: 5 SFU
[17]
  IFN-γ ELISpot response: 0 SFU

## FPQTEQPEQPFPQP
Subject A, 11-17yrs
  Cross-reactive T cell response: 1 SFU
Subject D, 11-17yrs
  Cross-reactive T cell response: 0 SFU
Subject E, 11-17yrs
  Cross-reactive T cell response: 3 SFU
Subject F, 11-17yrs
  Cross-reactive T cell response: 2 SFU
Subject G, 11-17yrs
  Cross-reactive T cell response: 2 SFU
Subject H
  Cross-reactive T cell response: 1 SFU
Subject I (3-5yrs/6-10yrs part)
  Cross-reactive T cell response: 0 SFU
Subject J
  Significant response as a percentage of maximal peptide SFU: ′′ (21-40% = ′′)
Subject J (3-5yrs/6-10yrs part)
  Cross-reactive T cell response: 67 SFU
Subject K
  Significant response as a percentage of maximal peptide SFU: ′′ (21-40% = ′′)
Subject K (3-5yrs/6-10yrs part)
  Cross-reactive T cell response: 19 SFU
Subject P, 11-17yrs
  Cross-reactive T cell response: 3 SFU
Subject Q, 11-17yrs
  Significant response as a percentage of maximal peptide SFU: ′ (11-20% = ′)
  Cross-reactive T cell response: 10 SFU
Subject T, 11-17yrs
  Cross-reactive T cell response: 7 SFU
Subject U, 11-17yrs
  Cross-reactive T cell response: 5 SFU
Subject V (3-5yrs/6-10yrs part)
  Cross-reactive T cell response: 6 SFU
Subject W (3-5yrs/6-10yrs part)
  Cross-reactive T cell response: 5 SFU
Subject Y (3-5yrs/6-10yrs part)
  Cross-reactive T cell response: 3 SFU
Subject five (3-5yrs/6-10yrs part)
  Cross-reactive T cell response: 5 SFU
Subject nine, 11-17yrs
  Cross-reactive T cell response: 0 SFU
Subject seven (3-5yrs/6-10yrs part)
  Cross-reactive T cell response: 5 SFU
Subject six (3-5yrs/6-10yrs part)
  Cross-reactive T cell response: 4 SFU
Subject ten
  Significant response as a percentage of maximal peptide SFU: + (>70% = +)
Subject ten (3-5yrs/6-10yrs part)
  Cross-reactive T cell response: 13 SFU
Subject two (3-5yrs/6-10yrs part)
  Cross-reactive T cell response: 3 SFU

## GIIQPQQPAQL
[1]
  IFN-γ ELISpot response: 0 SFU
[2]
  IFN-γ ELISpot response: 1 SFU
[3]
  IFN-γ ELISpot response: 2 SFU
Patient II, max peptide 15 SFU
  Significant response as percentage of maximal peptide SFU: + (>70% = +)
Patient K, max peptide 53 SFU
  Significant response as percentage of maximal peptide SFU: ′′ (21-40% = ′′)
[5]
  IFN-γ ELISpot response: 7 SFU
[6]
  IFN-γ ELISpot response: 0 SFU
[7]
  IFN-γ ELISpot response: 4 SFU
[8]
  IFN-γ ELISpot response: 5 SFU
[9]
  IFN-γ ELISpot response: 2 SFU
[10]
  IFN-γ ELISpot response: 1 SFU
[11]
  IFN-γ ELISpot response: 0 SFU
[13]
  IFN-γ ELISpot response: 3 SFU
[15]
  IFN-γ ELISpot response: 5 SFU
[16]
  IFN-γ ELISpot response: 3 SFU
[17]
  IFN-γ ELISpot response: 0 SFU

## GLERPWQEQPLPPQ
[19]
  IFN-γ ELISpot response: 4 SFU
[20]
  IFN-γ ELISpot response: 0 SFU
[21]
  IFN-γ ELISpot response: 0 SFU
[1]
  IFN-γ ELISpot response: 0 SFU
[22]
  IFN-γ ELISpot response: 0 SFU
[2]
  IFN-γ ELISpot response: 16 SFU
Patient H, max peptide 17 SFU
  Significant response as percentage of maximal peptide SFU: + (>70% = +)
[3]
  IFN-γ ELISpot response: 1 SFU
[23]
  IFN-γ ELISpot response: 0 SFU
[5]
  IFN-γ ELISpot response: 7 SFU
[6]
  IFN-γ ELISpot response: 22 SFU
Patient Q, max peptide 97 SFU
  Significant response as percentage of maximal peptide SFU: ′′ (21-40% = ′′)
[7]
  IFN-γ ELISpot response: 1 SFU
[8]
  IFN-γ ELISpot response: 7 SFU
[9]
  IFN-γ ELISpot response: 9 SFU
[10]
  IFN-γ ELISpot response: 1 SFU
[11]
  IFN-γ ELISpot response: 6 SFU
[13]
  IFN-γ ELISpot response: 11 SFU
[14]
  Significant response as percentage of maximal peptide SFU: ′′′ (41-70% = ′′′)
[15]
  IFN-γ ELISpot response: 5 SFU
[16]
  IFN-γ ELISpot response: 3 SFU
[24]
  IFN-γ ELISpot response: 2 SFU
[17]
  IFN-γ ELISpot response: 1 SFU

## GQSGYYPTSPQQS
[19]
  IFN-γ ELISpot response: 5 SFU
[20]
  IFN-γ ELISpot response: 0 SFU
[21]
  IFN-γ ELISpot response: 10 SFU
Patient F, max peptide 178 SFU
  Significant response as percentage of maximal peptide SFU: (6-10% = ^)
[1]
  IFN-γ ELISpot response: 1 SFU
[22]
  IFN-γ ELISpot response: 2 SFU
[2]
  IFN-γ ELISpot response: 4 SFU
[3]
  IFN-γ ELISpot response: 1 SFU
Patient II, max peptide 15 SFU
  Significant response as percentage of maximal peptide SFU: + (>70% = +)
[23]
  IFN-γ ELISpot response: 0 SFU
[5]
  IFN-γ ELISpot response: 10 SFU
[6]
  IFN-γ ELISpot response: 5 SFU
[7]
  IFN-γ ELISpot response: 4 SFU
[8]
  IFN-γ ELISpot response: 3 SFU
[9]
  IFN-γ ELISpot response: 0 SFU
[10]
  IFN-γ ELISpot response: 4 SFU
[11]
  IFN-γ ELISpot response: 3 SFU
[13]
  IFN-γ ELISpot response: 11 SFU
[14]
  Significant response as percentage of maximal peptide SFU: ′′′ (41-70% = ′′′)
[15]
  IFN-γ ELISpot response: 5 SFU
[16]
  IFN-γ ELISpot response: 6 SFU
[24]
  IFN-γ ELISpot response: 2 SFU
[17]
  IFN-γ ELISpot response: 2 SFU
